The values below are quoted from earlier work in patent US9687002B2, “Botanical antimicrobial microemulsions (BAMM)” (Indusco, Ltd., priority 2015, dated 2017).

The test system of the data set is various fungi that commonly infect toenails.

With `Cc1ccc(C(C)C)c(O)c1` [Thymol], the effectiveness against fungi entry was “effective”.
